Test results: PubChem BioAssay (NCI)
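96-well plates; 48 h exposure; 5 concentrations. Endpoints by linear interpolation between flanking doses. Not reached: highest tested concentration assigned. GI50 marks 50% less growth. The concentration for full growth arrest is given as TGI.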

Columns and labels:
Test in all cases: DTP human tumour cell line panel, 48 h
A549 NSCLC = tested on: A549 NSCLC
MDA-MB-231 breast = tested on: MDA-MB-231 breast
DU-145 prostate = tested on: DU-145 prostate
KM12 colon = tested on: KM12 colon
UACC-62 melanoma = tested on: UACC-62 melanoma
MOLT-4 leukemia = tested on: MOLT-4 leukemia
MCF7 breast = tested on: MCF7 breast
ACHN renal = tested on: ACHN renal
SK-MEL-2 melanoma = tested on: SK-MEL-2 melanoma
SF-539 CNS = tested on: SF-539 CNS

Row | Compound | TGI (A549 NSCLC) | TGI (MDA-MB-231 breast) | TGI (DU-145 prostate) | TGI (KM12 colon) | TGI (UACC-62 melanoma) | TGI (MOLT-4 leukemia) | TGI (MCF7 breast) | TGI (ACHN renal) | TGI (SK-MEL-2 melanoma) | TGI (SF-539 CNS) | GI50 (A549 NSCLC) | GI50 (SK-MEL-2 melanoma) | GI50 (MDA-MB-231 breast) | GI50 (DU-145 prostate) | GI50 (KM12 colon) | GI50 (UACC-62 melanoma) | GI50 (MOLT-4 leukemia) | GI50 (MCF7 breast) | GI50 (SF-539 CNS) | GI50 (ACHN renal)
1 | Cc1ccc2nc(-c3ccc(NC(=O)c4ccc(N)cc4)c(S(=O)(=O)O)c3)sc2c1 | > 100 µM | > 100 µM | > 100 µM | > 100 µM | > 100 µM | > 100 µM | > 100 µM | > 100 µM | – | – | – | – | – | – | – | – | – | – | – | –
2 | CC1=CC(O)C(C(O)(C(F)(F)F)C(F)(F)F)C(C)(C)C1 (stereo not drawn) | > 10 µM | > 10 µM | > 10 µM | > 10 µM | > 10 µM | > 10 µM | > 10 µM | > 10 µM | > 10 µM | > 10 µM | – | – | – | – | – | – | – | – | – | –
3 | OCCCSCCO | > 100 µM | > 100 µM | > 100 µM | > 100 µM | > 100 µM | > 100 µM | > 100 µM | > 100 µM | > 100 µM | > 100 µM | – | – | – | – | – | – | – | – | – | –
4 | Nc1cc(S(=O)(=O)O)cc2ccc(S(=O)(=O)O)cc12 | > 100 µM | > 100 µM | > 100 µM | > 100 µM | > 100 µM | – | > 100 µM | > 100 µM | > 100 µM | > 100 µM | – | – | – | – | – | – | – | – | – | –
5 | Nc1nnc(CCC(=O)Nc2cc(Cl)ccc2Cl)n1N | > 100 µM | – | – | > 100 µM | > 100 µM | > 100 µM | – | > 100 µM | > 100 µM | > 100 µM | – | – | – | – | – | – | – | – | – | –
6 | CS(C)(=O)=Nn1c(=O)n2n(c1=O)C1c3ccccc3C2c2ccccc21 | > 100 µM | > 100 µM | > 100 µM | – | > 100 µM | > 100 µM | > 100 µM | > 100 µM | > 100 µM | > 100 µM | – | – | – | – | – | – | – | – | – | –
7 | Cc1n[n+]([O-])c(C)cc1[N+](=O)[O-] | 48.1 µM | 39.8 µM | 51.2 µM | – | 31.5 µM | – | 45.6 µM | 30.2 µM | 42.3 µM | 59.3 µM | – | – | – | – | – | – | – | – | – | –
8 | CC1C(=O)c2cc3c(cc2CCN(C)Cc2c1ccc1c2OCO1)OCO3 (stereo not drawn) | > 75 µg/mL | > 75 µg/mL | > 75 µg/mL | > 75 µg/mL | > 75 µg/mL | > 75 µg/mL | > 75 µg/mL | > 75 µg/mL | > 75 µg/mL | > 75 µg/mL | > 75 µg/mL | > 75 µg/mL | > 75 µg/mL | > 75 µg/mL | 59 µg/mL | 45.2 µg/mL | 21.8 µg/mL | 48.5 µg/mL | 71.2 µg/mL | > 75 µg/mL
9 | COc1cccc(/C=N/[N-]C(N)=O)c1[O-].[Ni+2].[OH3+] | 2.27 µM | – | – | 0.91 µM | 1.35 µM | 1.58 µM | – | 2.07 µM | 1.46 µM | 2.28 µM | – | – | – | – | – | – | – | – | – | –
10 | CCOC(=O)c1c(-c2cccc(Cl)c2)c(C(=O)OC)c(C)c2sc(C=O)nc12 | > 100 µM | 34.6 µM | 37.8 µM | 37.8 µM | 32.2 µM | 48.1 µM | 35.7 µM | 31.4 µM | 37.1 µM | 35.4 µM | – | – | – | – | – | – | – | – | – | –
11 | N#Cc1ccccc1C#C/C=C\C#Cc1ccccc1N | > 100 µM | 8.37 µM | > 100 µM | > 51.3 µM | > 33.6 µM | > 100 µM | > 100 µM | > 38.3 µM | 8.2 µM | > 20.2 µM | 6.95 µM | 1.17 µM | 2.13 µM | 13.9 µM | 2.55 µM | 3.03 µM | 3.68 µM | 67.9 µM | 4.49 µM | 7.88 µM
12 | COc1cc(C2c3cc4c(cc3[C@@H](Nc3ccc(Oc5ccccc5)cc3)C3COC(=O)[C@H]23)OCO4)cc(OC)c1O (stereo partly drawn) | > 39.5 µM | – | – | > 100 µM | 22.9 µM | 2 µM | > 37.1 µM | – | > 100 µM | > 28.2 µM | – | – | – | – | – | – | – | – | – | –
13 | Clc1ccc(Nc2nc(Nc3ccccc3)nc(Nc3ccc(-c4cc(-c5ccc(Cl)cc5)on4)cc3)n2)cc1 | > 100 µM | 66.3 µM | 80.3 µM | 52.4 µM | 72.4 µM | > 100 µM | > 100 µM | > 100 µM | > 100 µM | > 100 µM | 19.2 µM | 24.1 µM | 10.5 µM | 20.4 µM | 13.5 µM | 16.7 µM | 21 µM | 12.2 µM | 37.9 µM | 21.9 µM
14 | Cc1oc(N)c(S(=O)(=O)c2cc3ccccc3n(O)c2=N)c1C | > 100 µM | > 100 µM | > 100 µM | > 100 µM | > 100 µM | > 100 µM | > 100 µM | > 100 µM | > 100 µM | > 100 µM | – | – | – | – | – | – | – | – | – | –
15 | CC(=O)Nc1ccc(C(=O)NN2C(=O)C(Cl)C2c2cccc([N+](=O)[O-])c2)cc1 (stereo not drawn) | > 100 µM | – | – | > 100 µM | > 100 µM | > 100 µM | – | > 100 µM | > 100 µM | > 100 µM | – | – | – | – | – | – | – | – | – | –
16 | CC1=C[C@@H](C)C[C@]2(C)CC[C@H](O2)[C@]23CC[C@](CO)(C[C@H](O2)[C@@H]2O[C@@](C)(CC2=O)[C@@H](O)[C@H]2CC[C@@]4(CCC[C@@H](O4)[C@H](C)C(=O)O[C@H]4C[C@H]([C@]5(O)OCC[C@H](C)[C@@H]5O)O[C@H]4C=C1)O2)O3 | > 10 µM | 0.217 µM | > 10 µM | > 10 µM | > 9.63 µM | > 10 µM | > 10 µM | > 10 µM | > 2.45 µM | – | – | – | – | – | – | – | – | – | – | –
17 | CCOCC(=O)N(C)c1cccc2c3c(n(C)c12)CCCCC3 | > 100 µM | – | – | > 100 µM | > 100 µM | > 100 µM | > 100 µM | – | > 100 µM | > 100 µM | – | – | – | – | – | – | – | – | – | –
